The subject of series [1] is SAOS-2 OS cells. As to the kind of experiment: Cell viability IC50, SAOS-2. The format is cell-based. Particulars: Homo sapiens. Here is the method:
(§1) The plate was installed into the RTCA system, and the electrical impedance (represented as cell index) was measured every 10 min.
(§2) To investigate the relationship between the level of CD99 expression and drug sensitivity, the endogenous expression of CD99 was determined in a panel of 9 ES and 13 non-ES cell lines. The recombinant purified CD99-ECD protein was used to generate standard curves for immunoquantification of CD99 expression by immunoblotting (FIGS. 6B and 6C).

Series [2] has as its system RH4 rhabdomyosarcoma cells. In words: Cell viability IC50, RH4. Particulars: Homo sapiens, RH4 (RM). It counts as cell-based. Here is the method: as §1, §2
The target in series [3] is T1, interaction of CD99 with cyclophilin A and PKA-RIIα (Homo sapiens, UniProt P14209).
T1 construct: Endogenous CD99 was immunoprecipitated from RDES or STA-ET-7.2 ES cells; endogenous in cells; host or cells: RDES or STA-ET-7.2
As to the kind of experiment: Co-immunoprecipitation of CD99 with cyclophilin A and PKA-RIIα. It counts as cell-based. Particulars: 3 μmol/L, 6 h; RDES or STA-ET-7.2 cells. Here is the method: In FIG. 7A, STA-ET-7.2 ES cells were incubated with either drug at 5 μmol/L concentration or DMSO for 1 h. The cells were treated with cross-linking agent BS^3 as described in the Examples. The lysates were resolved in 12% SDS-PAGE followed by immunoblotting with anti-actin and anti-CD99 clone 013 antibodies. M and D represent monomeric and dimeric forms of CD99, respectively. Values given below the lanes on the immunoblot represent the relative density of the bands, and were determined using ImageJ 1.48v software. In FIG. 7B, RDES or STA-ET-7.2 ES cells were treated with 3 μmol/L of either drug for 6 h. Endogenous CD99 was immunoprecipitated from total cell lysates using either anti-CD99 clone 12E7 antibody or anti-CD99 clone 013 antibody. Immunoblot (IB) analysis was performed for cyclophilin A, CD99 and PKA-RIIα using both cell lysates (TCL) and immunoprecipitated (IP) samples. Values given below the lanes on each immunoblot represent the relative density of the bands, and were determined using ImageJ 1.48v software. In FIG. 7C, SAOS-2 and U-2 OS cells were transiently transfected with an empty mammalian expression vector (EV) or an expression construct containing a cDNA encoding full length human CD99. The growth rate of cells was monitored by electrical impedance in real time. […]

In series [4] the test system is 6647 and TC-71 ES cells. As to the kind of experiment: Transwell cell migration assay. The format is cell-based, human. Particulars: 24 h pre-treatment; cladribine 1 or 3 μmol/L, clofarabine 0.3 or 0.5 μmol/L. Here is the method: Immunoblot analysis was performed on total cell lysates for ROCK2 and GAPDH expression. In FIG. 8B, TC-71 control and TC-CD99-shRNA #2 cells were treated with either drug at indicated concentrations for 1, 3 and 6 h. Immunoblot analysis was performed on total cell lysates for ROCK2 and GAPDH expression. In FIG. 8C, cell migration experiments were performed using Boyden chamber transwell migration assay with 10% serum serving as the chemoattractant in the lower chamber. […] The number of migrated cells was then quantified by counting the cells in the bottom chamber under the microscope. Asterisks indicate statistically significant differences between treatments (*p<0.05; vs. control using a Student's unpaired t test).
Motility assay was done using Trans-well chambers (Costar; Corning (Corning, N.Y.)) according to manufacturer's instructions.

The subject of series [5] is TC-71 xenografts. As to the kind of experiment: Orthotopic TC-71 xenograft, i.p. administration. The format is in vivo, SCID/beige mice. The settings on record: clofarabine 30 mg/kg, cladribine 20 mg/kg; for event-free survival: i.p. once daily 14 days, vs vehicle; for tumor growth: i.p. Here is the method: The antitumor activity of drugs through intraperitoneal (i.p.) administration given once daily was determined. […] The in vivo potencies of drug treatments were evaluated by event-free survival curves, where tumors that reached 1.0 cm^3 in size considered an event.

Here are results for 2 compounds from patent publication US11202792B2, “CD99 inhibitors and their uses” (GEORGETOWN UNIVERSITY, priority 2016, dated 2021).

Read-outs that look alike come from different tables or passages of the source.

What is called IC50 is the concentration needed to halve the response being measured.

T1 sequence (P14209 23-185): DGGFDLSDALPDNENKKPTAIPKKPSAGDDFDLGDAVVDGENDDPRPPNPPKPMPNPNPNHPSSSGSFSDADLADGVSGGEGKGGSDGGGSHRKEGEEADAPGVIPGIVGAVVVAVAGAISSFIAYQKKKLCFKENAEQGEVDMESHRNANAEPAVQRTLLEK

As for `Nc1nc(Cl)nc2c1ncn2[C@H]1C[C@H](O)[C@@H](CO)O1` [cladribine], the IC50 in series [1] is above 30 µM. This compound also registered a half-maximal inhibitory concentration (IC50) in series [2] above 30 µM. In series [3], the “amount of coprecipitated cyclophilin A and PKA-RIIα” value is on record as “decreased significantly”. In addition, in series [4], the “number of migrated cells” value was “significantly decreased”. For the same compound, in series [5], the event-free survival entry is on record as “significantly different” and the tumor growth result was “grew slower”. In addition, where the note is “mouse, in vivo”, the total body weight entry was “does not change”.

As for `Nc1nc(Cl)nc2c1ncn2[C@@H]1O[C@H](CO)[C@@H](O)[C@@H]1F` [clofarabine], the figures for the half-maximal inhibitory concentration (IC50) in series [1] and in series [2] were above 30 µM and above 10 µM, respectively. The “amount of coprecipitated cyclophilin A and PKA-RIIα” value in series [3] was “decreased significantly”. Besides, the “number of migrated cells” value in series [4] was “significantly decreased”. The event-free survival entry in series [5] was “not statistically significant”; in series [5] (listed as Clofarabine) it was “significantly improved”. Moreover, the tumor growth entry in series [5] is reported as “significant inhibition of tumor growth”. Moreover, for the setting “TC-71 and SKES xenograft models, clofarabine 30 mg/kg in TC-71”, the tolerability entry is “early deaths”. Also, for the setting “weighed daily during treatment”, the total body weight result is recorded as “does not change”.
